From ChEMBL document CHEMBL3856212, “Synthesis, anti-proliferative and genotoxicity studies of 6-chloro-5-(2-substituted-ethyl)-1,3-dihydro-2H-indol-2-ones and 6-chloro-5-(2-chloroethyl)-3-(alkyl/ary-2-ylidene)indolin-2-ones” (Eur J Med Chem, 2016)

Assays:
[1] = Cytotoxicity against human HL-60(TB) cells assessed as growth inhibition after 48 hrs by SRB assay; type: functional; details: HL-60, 48 h
[2] = Cytotoxicity against human SR cells assessed as growth inhibition after 48 hrs by SRB assay; type: functional
[3] = Cytotoxicity against human A549 cells assessed as growth inhibition after 48 hrs by SRB assay; type: functional; details: A549, 48 h
[4] = Cytotoxicity against human HOP62 cells assessed as growth inhibition after 48 hrs by SRB assay; type: functional; details: HOP-62, 48 h
[5] = Cytotoxicity against human NCI-H522 cells assessed as growth inhibition after 48 hrs by SRB assay; type: functional; details: NCI-H522, 48 h
[6] = Cytotoxicity against human COLO205 cells assessed as growth inhibition after 48 hrs by SRB assay; type: functional; details: COLO 205, 48 h
[7] = Cytotoxicity against human HCC2998 cells assessed as growth inhibition after 48 hrs by SRB assay; type: functional; details: HCC 2998, 48 h
[8] = Cytotoxicity against human HT-29 cells assessed as growth inhibition after 48 hrs by SRB assay; type: functional; details: HT-29, 48 h
[9] = Cytotoxicity against human KM12 cells assessed as growth inhibition after 48 hrs by SRB assay; type: functional; details: KM12, 48 h
[10] = Cytotoxicity against human SNB75 cells assessed as growth inhibition after 48 hrs by SRB assay; type: functional; details: SNB-75, 48 h
[11] = Cytotoxicity against human SK-MEL-28 cells assessed as growth inhibition after 48 hrs by SRB assay; type: functional; details: SK-MEL-28, 48 h
[12] = Cytotoxicity against human UACC62 cells assessed as growth inhibition after 48 hrs by SRB assay; type: functional; details: UACC-62, 48 h
[13] = Cytotoxicity against human OVCAR4 cells assessed as growth inhibition after 48 hrs by SRB assay; type: functional; details: OVCAR-4, 48 h
[14] = Cytotoxicity against human RXF393 cells assessed as growth inhibition after 48 hrs by SRB assay; type: functional; details: RXF 393, 48 h
[15] = Cytotoxicity against human BT549 cells assessed as growth inhibition after 48 hrs by SRB assay; type: functional; details: BT-549, 48 h
[16] = Cytotoxicity against human HOP62 cells assessed as assessed as growth inhibition at 10^-5 M after 48 hrs by SRB assay relative to control; type: functional; details: HOP-62, 48 h, read-out: GI
[17] = Cytotoxicity against human NCI-H522 cells assessed as assessed as growth inhibition at 10^-5 M after 48 hrs by SRB assay relative to control; type: functional; details: NCI-H522, 48 h, read-out: GI
[18] = Cytotoxicity against human HCT116 cells assessed as assessed as growth inhibition at 10^-5 M after 48 hrs by SRB assay relative to control; type: functional; details: HCT-116, 48 h, read-out: GI
[19] = Cytotoxicity against human KM12 cells assessed as assessed as growth inhibition at 10^-5 M after 48 hrs by SRB assay relative to control; type: functional; details: KM12, 48 h, read-out: GI
[20] = Cytotoxicity against human SF295 cells assessed as assessed as growth inhibition at 10^-5 M after 48 hrs by SRB assay relative to control; type: functional; details: SF-295, 48 h, read-out: GI
[21] = Cytotoxicity against human SNB75 cells assessed as assessed as growth inhibition at 10^-5 M after 48 hrs by SRB assay relative to control; type: functional; details: SNB-75, 48 h, read-out: GI
[22] = Cytotoxicity against human SK-MEL-2 cells assessed as assessed as growth inhibition at 10^-5 M after 48 hrs by SRB assay relative to control; type: functional; details: SK-MEL-2, 48 h, read-out: GI
[23] = Cytotoxicity against human SK-MEL-28 cells assessed as assessed as growth inhibition at 10^-5 M after 48 hrs by SRB assay relative to control; type: functional; details: SK-MEL-28, 48 h, read-out: GI
[24] = Cytotoxicity against human SK-MEL-5 cells assessed as assessed as growth inhibition at 10^-5 M after 48 hrs by SRB assay relative to control; type: functional; details: SK-MEL-5, 48 h, read-out: GI
[25] = Cytotoxicity against human UACC257 cells assessed as assessed as growth inhibition at 10^-5 M after 48 hrs by SRB assay relative to control; type: functional; details: UACC-257, 48 h, read-out: GI
[26] = Cytotoxicity against human IGROV1 cells assessed as assessed as growth inhibition at 10^-5 M after 48 hrs by SRB assay relative to control; type: functional; details: IGROV-1, 48 h, read-out: GI
[27] = Cytotoxicity against human OVCAR3 cells assessed as assessed as growth inhibition at 10^-5 M after 48 hrs by SRB assay relative to control; type: functional; details: OVCAR-3, 48 h, read-out: GI
[28] = Cytotoxicity against human SKOV3 cells assessed as assessed as growth inhibition at 10^-5 M after 48 hrs by SRB assay relative to control; type: functional; details: SK-OV-3, 48 h, read-out: GI
[29] = Cytotoxicity against human ACHN cells assessed as assessed as growth inhibition at 10^-5 M after 48 hrs by SRB assay relative to control; type: functional; details: read-out: GI
[30] = Cytotoxicity against human Caki1 cells assessed as assessed as growth inhibition at 10^-5 M after 48 hrs by SRB assay relative to control; type: functional; details: CAKI-1, 48 h, read-out: GI
[31] = Cytotoxicity against human UO31 cells assessed as assessed as growth inhibition at 10^-5 M after 48 hrs by SRB assay relative to control; type: functional; details: UO-31, 48 h, read-out: GI
[32] = species on record: Mus musculus; test: Genotoxicity in mouse EAC cells at 250 uM after 24 hrs by micronucleus assay (reference value: 3.5 +/- 0.30%); type: toxicity, cell-based; details: ehrlich
[33] = species on record: Mus musculus; test: Genotoxicity in mouse EAC cells at 375 uM after 24 hrs by micronucleus assay (reference value: 3.5 +/- 0.30%); type: toxicity, cell-based; details: ehrlich
[34] = Cytotoxicity against human NCI-H322M cells assessed as assessed as growth inhibition at 10^-5 M after 48 hrs by SRB assay relative to control; type: functional; details: read-out: GI
[35] = read-out: LD50 (the source's name)

In the case of O=C1Cc2cc(CCn3cncn3)c(Cl)cc2N1, the GI50 [1] is reported as 1 µM, the TGI [1] is reported as over 1 µM and the CC50 [1, 35] is reported as over 1 µM. It also gave a GI50 [2] of 1 µM, a TGI [2] of over 1 µM and a CC50 [2, 35] of over 1 µM. It also gave a GI50 [3] of 1.65 µM, a TGI [3] of over 1 µM and a CC50 [3, 35] of over 1 µM. The GI50 [4] was 2.99 µM, the TGI [4] was over 1 µM and the CC50 [4, 35] was over 1 µM. For the same molecule, the GI50 [5] was 5.29 µM, the TGI [5] was over 1 µM and the CC50 [5, 35] was over 1 µM. It also gave a GI50 [6] of 2.33 µM, a TGI [6] of over 1 µM and a CC50 [6, 35] of over 1 µM. It also gave a GI50 [7] of 1 µM, a TGI [7] of over 1 µM and a CC50 [7, 35] of over 1 µM. For the same molecule, the GI50 [8] was 1 µM, the TGI [8] was over 1 µM and the CC50 [8, 35] was over 1 µM. For the same molecule, the GI50 [9] was 5.42 µM, the TGI [9] was over 1 µM and the CC50 [9, 35] was over 1 µM. For the same molecule, the GI50 [10] was 1.32 µM, the TGI [10] was over 1 µM and the CC50 [10, 35] was over 1 µM. The GI50 [11] was 2.1 µM, the TGI [11] was over 1 µM and the CC50 [11, 35] was over 1 µM. It also gave a GI50 [12] of 2.07 µM, a TGI [12] of over 1 µM and a CC50 [12, 35] of over 1 µM. The GI50 [13] was 1 µM, the TGI [13] was over 1 µM and the CC50 [13, 35] was over 1 µM. The GI50 [14] was 7.48 µM, the TGI [14] was over 1 µM and the CC50 [14, 35] was over 1 µM. For the same molecule, the GI50 [15] was 8.72 µM, the TGI [15] was over 1 µM and the CC50 [15, 35] was over 1 µM. For the same molecule, the inhibition of growth at 10 µM [16] was 30.4%, the inhibition of growth at 10 µM [17] was 67.2% and the inhibition of growth at 10 µM [18] was 21%. It also gave an inhibition of growth at 10 µM [19] of 64%, an inhibition of growth at 10 µM [20] of 30.7% and an inhibition of growth at 10 µM [21] of 36.5%. It also gave an inhibition of growth at 10 µM [22] of 28.7%, an inhibition of growth at 10 µM [23] of 32.8% and an inhibition of growth at 10 µM [24] of 59.9%. The inhibition of growth at 10 µM [25] was 48.3%, the inhibition of growth at 10 µM [26] was 15.3% and the inhibition of growth at 10 µM [27] was 28.3%. It also gave an inhibition of growth at 10 µM [28] of 20.7%, an inhibition of growth at 10 µM [29] of 25.4% and an inhibition of growth at 10 µM [30] of 40%. It also gave an inhibition of growth at 10 µM [31] of 34%, an Activity [32] of 3.5% and an Activity [33] of 4.13%. The inhibition of growth at 10 µM [34] was 7.87%.
